# Test results as given in patent US20240368123A1, “AROMATIC RING-CONTAINING BIOLOGICAL ANTAGONIST, AND PREPARATION METHOD THEREFOR AND USE THEREOF” (SHANGHAI HANSOH BIOMEDICAL CO., LTD., priority 2021, published 2024).
# What was measured:
# [1] = Liver microsomal metabolism stability test, rat; type: in vitro ADME; conditions: rat liver microsomes, 60 min
# Experimental: (§1) The purpose of this experiment was to detect the stability of the example compounds in liver microsomes of rats, dogs and humans.
# (§2) • Formulation of working solution of compounds: compound stock solution was added to phosphate buffer to a final concentration of 20 μM.
# (§3) Dilution was performed with 100 mM phosphate buffer to a final concentration of 0.625 mg/mL.
# (§4) NADPH (reduced nicotinamide adenine dinucleotide phosphate) and UDPGA (uridine diphosphate glucuronic acid) were weighed, 100 mM phosphate buffer was added, and the final concentration was 20 mM.
# (§5) 1 mg of Alamethicin was weighed, and 200 μL of DMSO was added to formulate a 5 mg/mL solution. Then dilution was performed with phosphate buffer to a final concentration of 50 μg/mL.
# (§6) Stop solution: the stop solution contains 100 ng/mL labetalol hydrochloride and 400 ng/mL tolbutamide and cold acetonitrile as internal standard.
# (§7) 400 μL of formulated liver microsomes, 25 μL of compound working solution and 25 μL of Alamethicin were added in sequence to the 96-well plate, and pre-incubated at 37° C. for 10 min. Then 50 μL of formulated NADPH/UDPGA was added to start the reaction and the mixture was incubated at 37° C. The total volume of the reaction system was 500 μL. The final contents of each component are as follows:
# (§8) • Instrument: Shimadzu LC-30 AD; • Chromatographic column: XBridge® C18 (50*4.6 mm, 5 μm particle size); • Mobile phase: A: 0.1% formic acid solution, B: methanol Wash gradient: 0.2-1.6 min 5% A to 95% A, 3.0-3.1 min 95% A to 5% A Run time: 4.0 min.
# (§9) • Instrument: API5500 liquid chromatography mass spectrometer, AB Sciex; • Ion source: electrospray ionization source (ESI); • Drying gas: N2, temperature 500° C.; • Electrospray voltage: 5000 V; • Detection mode: positive ion detection; • Scanning mode: reaction monitoring (MRM) mode.
# [2] = Liver microsomal metabolism stability test, dog; type: in vitro ADME; conditions: dog liver microsomes, 60 min
# Experimental: as §1, §2, §3, §4, §5, §6, §7, §8, §9
# [3] = Liver microsomal metabolism stability test, human; type: in vitro ADME; conditions: human liver microsomes, 60 min
# Experimental: as §1, §2, §3, §4, §5, §6, §7, §8, §9
# [4] = test system: spontaneously hypertensive rat (SHR) model; assay: Pharmacodynamic evaluation on blood pressure in spontaneously hypertensive rats; type: in vivo; conditions: P.O, 30 mpk, 1-8 h after administration, P<0.05
# Description: This experiment used a spontaneously hypertensive rat (SHR) model to evaluate the pharmacodynamic effect of the test compounds on the blood pressure and heart rate of the model.
# Kent Scientific CODA non-invasive blood pressure system.
# Spontaneously hypertensive rats (SHR) were provided by Beijing Vital River Laboratory Animal Technology Co., Ltd., male, 150-200 g, 13-15 weeks old, 50 rats.
# After animals arrived at the experimental facility, the animals were adapted to the animal facility for 5-7 days. 4.2 After the adaptation period, the animals were adapted to the tail oversleeve restrain for 3 days, and the tail oversleeve restrain was performed twice a day. After the last restrain adaptation, the basal blood pressure was measured, and the animals were randomly divided into groups according to the basal blood pressure. There was no significant difference between the average systolic blood pressure of animals in each group, and the number of animals in each group met the requirements of statistical testing and pharmacodynamic guidelines. 4.3 On the second day after grouping, the animals were administered according to experimental design and grouping (P.O, 5 mL/kg), and the systolic blood pressure (SBP), diastolic blood pressure (DBP), mean arterial pressure (MAP) and heart rate (HR) of the animals were measured before administration and at 1, 2, 4, 6, 8 and 24 h after administration using tail oversleeve method.
# Statistical differences between groups were analyzed by Two-way ANOVA test. Among them, P<0.05 indicated a significant difference, and P<0.01 indicated an extremely significant difference.
Structure (SMILES),Remaining rate [1] [%],Remaining rate [2] [%],Remaining rate [3] [%],"blood pressure (systolic blood pressure, diastolic blood pressure, mean arterial pressure) compared with the vehicle group [4]"
"[2H]C([2H])(c1ccc(-c2ccccc2S(=O)(=O)Nc2noc(C)c2Cl)c(COCC)c1)N1C(=O)C2(CCCC2)N=C1CCCC [Example 44, 4′-((2-butyl-4-oxo-1,3-diazaspiro[4.4]non-1-en-3-yl)methyl-d2)-N-(4-chloro-5-methylisoxazol-3-yl)-2′-(ethoxymethyl)-[1,1′-biphenyl]-2-sulfonamide]",29.4,24.6,33.0,significantly reduced blood pressure
"CCCCC1=NC2(CCCC2)C(=O)N1Cc1ccc(-c2ccccc2S(=O)(=O)Nc2noc(C)c2Cl)c(COCC)c1 [Example 45, 2-[4-[(2-butyl-4-oxo-1,3-diazaspiro[4.4]non-1-en-3-yl)methyl]-2-(ethoxymethyl)phenyl]-N-(4-chloro-5-methyl-isoxazol-3-yl)benzsulfamide]",23.3,23.6,32.0,significantly reduced blood pressure
